One may read the IC50 as the concentration at which inhibition is half-maximal.

The target of the test is CB1 (CNR1) (Homo sapiens, UniProt P21554). As to the kind of experiment: cAMP CNR1 Hunter cell line antagonist assay (CB1 assay). It counts as cell-based. The following applies: antagonist mode, cAMP CNR1 Hunter cells, EC80 agonist; read-out: CB1 assay, Efficacy (IC50). How it is done: cAMP CNR1 Hunter cell line (Eurofins DiscoveryX) were expanded from freezer stocks and seeded in a total volume of 20 μL into white walled, 384-well microplates and incubated at 37° C. for the appropriate time prior to testing. For antagonist determination, cell media was aspirated from cells and replaced with 10 μL 1:1 HBSS/Hepes:cAMP XS+Ab reagent. 5 μL of 4× compound was added to the cells and incubated at 37° C. for 30 minutes. 5 μL of 4× EC80 agonist was added to cells and incubated at 37° C. for 30 minutes. After appropriate compound incubation, assay signal was generated through incubation with 20 μL cAMP XS+ED/CL lysis cocktail for one hour followed by incubation with 20 μL cAMP XS+EA reagent for three hours at room temperature. Microplates were read following signal generation with a PerkinElmer Envision™ instrument for chemiluminescent signal detection. Compound activity (IC50) was analyzed using CBIS data analysis suite (ChemInnovation, CA).
CB1 (CNR1), sequence (P21554 whole entry): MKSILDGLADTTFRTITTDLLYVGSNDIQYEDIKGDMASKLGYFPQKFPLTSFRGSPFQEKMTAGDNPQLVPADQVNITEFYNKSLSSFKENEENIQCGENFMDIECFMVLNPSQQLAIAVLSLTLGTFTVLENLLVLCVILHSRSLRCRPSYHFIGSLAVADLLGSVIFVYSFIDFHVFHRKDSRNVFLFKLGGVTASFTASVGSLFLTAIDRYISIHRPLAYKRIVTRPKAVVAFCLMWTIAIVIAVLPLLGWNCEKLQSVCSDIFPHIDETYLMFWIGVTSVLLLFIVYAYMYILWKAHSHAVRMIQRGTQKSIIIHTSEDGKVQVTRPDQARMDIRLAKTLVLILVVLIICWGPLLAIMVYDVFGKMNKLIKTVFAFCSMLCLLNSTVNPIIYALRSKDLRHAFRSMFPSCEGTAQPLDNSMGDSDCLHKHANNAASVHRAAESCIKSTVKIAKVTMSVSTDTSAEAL
As to `CC1Oc2c(cc(Cl)cc2S(=O)(=O)Nc2ccc(F)cc2Cl)NC1=O` (centres unmarked) [BC19720], the IC50 is at least 25 µM.

With `O=C1COc2c(cc(Cl)cc2S(=O)(=O)Nc2ccccc2)N1` [BC19168], the IC50 was in the range of 1 to 25 µM. Consider `CCS(=O)(=O)c1cc2c(c(S(=O)(=O)Nc3ccc(C)cc3)c1)OCC(=O)N2` [BC19546], for which the IC50 is at least 25 µM. As for `O=C1NCCOc2c1cc(Br)cc2S(=O)(=O)Nc1ccc(OC(F)(F)F)cc1` [BC19550], the IC50 was at least 25 µM. Consider `CCC1Oc2cc(S(=O)(=O)Nc3ccc(OC(F)(F)F)cc3)c(Br)cc2N(C)C1=O` (centres unmarked) [BC19922], for which the IC50 was at least 25 µM. For `CCC1Oc2c(cc(Br)cc2S(=O)(=O)NCc2ccc(OC(F)(F)F)cc2)NC1=O` (centres unmarked) [BC19375], the IC50 is 1 to 25 µM. The value for `CC1Oc2cc(S(=O)(=O)N3CCN(C)CC3)c(Br)cc2NC1=O` (centres unmarked) [BC19219] was at least 25 µM; that for `Cc1ccc(NS(=O)(=O)c2c(C)c(Cl)cc3c2OCC(=O)N3)cc1Cl` [BC19433] was at least 25 µM; that for `CC1Oc2c(cc(Br)cc2S(=O)(=O)NC2CCC(C(C)(C)C)CC2)NC1=O` (centres unmarked) [BC19367] was at least 25 µM.

As for `CC1Oc2c(cc(Cl)cc2S(=O)(=O)Nc2ccc(F)c(F)c2)NC1=O` (centres unmarked) [BC19699], the IC50 is 1 to 25 µM. Take `O=C1NCCOc2c1cc(Br)cc2S(=O)(=O)Nc1ccc(F)cc1` [BC19549]: the IC50 was at least 25 µM. In the case of `CC1Oc2cc(S(=O)(=O)Nc3cccc(F)c3)c(Cl)cc2NC1=O` (centres unmarked) [BC19713], the IC50 was in the range of 1 to 25 µM.

Consider `CC1Oc2c(cc(Br)cc2S(=O)(=O)NCc2ccc(OC(F)(F)F)cc2)NC1=O` (centres unmarked) [BC19363], for which the IC50 lay within 1 to 25 µM. `COc1ccc(NS(=O)(=O)c2cc3c(cc2Br)NC(=O)CO3)cc1Cl` [BC19163]: the 50% inhibitory concentration (IC50) was below 1 µM. The value for `CC(C)NS(=O)(=O)c1cc2c(cc1Cl)NC(=O)C(C)O2` (centres unmarked) [BC19207] was at least 25 µM; that for `O=C1COc2cc(S(=O)(=O)Nc3ccccc3)c(Cl)cc2N1` [BC19161] was below 1 µM. Then `CCc1cccc(NS(=O)(=O)c2cc(Br)cc3c2OC(CC(C)C)C(=O)N3)c1` (centres unmarked) [BC19771], with 1 to 25 µM; and `CC(C)CC1Oc2cc(S(=O)(=O)Nc3cccc(Cl)c3)c(Br)cc2NC1=O` (centres unmarked) [BC19776], with at least 25 µM; and `CCC1Oc2cc(S(=O)(=O)Nc3ccc(OC)cc3)c(Cl)cc2NC1=O` (centres unmarked) [BC19211], with 1 to 25 µM. On to `CS(=O)(=O)c1cc2c(c(S(=O)(=O)Nc3cccc(Cl)c3)c1)OCC(=O)N2` [BC19427], for which the IC50 is at least 25 µM. Then `CC(C)CC1Oc2cc(S(=O)(=O)Nc3ccc(OC(F)(F)F)cc3)c(Br)cc2NC1=O` (centres unmarked) [BC19758], with at least 25 µM. Then `COc1ccc(NS(=O)(=O)c2cc(Br)cc3c2OCC(=O)N3)cc1` [BC19175], with at least 25 µM; and `CCc1ccc(NS(=O)(=O)c2cc3c(cc2Br)NC(=O)CCO3)cc1` [BC19690], with below 1 µM. As for `COc1ccc(NS(=O)(=O)c2cc(Br)cc3c2OCCNC3=O)cc1` [BC19606], the IC50 was at least 25 µM. Regarding `CCc1cccc(NS(=O)(=O)c2cc3c(cc2Br)NC(=O)CO3)c1` [BC19167], the IC50 is below 1 µM. The value for `CC1Oc2c(cc(Cl)cc2S(=O)(=O)Nc2cccc(Cl)c2)NC1=O` (centres unmarked) [BC19716] was 1 to 25 µM; that for `CCC1Oc2cc(S(=O)(=O)Nc3ccc(C(C)C)cc3)c(Cl)cc2NC1=O` (centres unmarked) [BC19210] was below 1 µM. Consider `CCC1Oc2cc(S(=O)(=O)Nc3ccc(F)cc3)c(Cl)cc2NC1=O` (centres unmarked) [BC19731], for which the IC50 was 1 to 25 µM. On to `CCC1Oc2cc(S(=O)(=O)NCc3ccc(OC(F)(F)F)cc3)c(Br)cc2NC1=O` (centres unmarked) [BC19369], for which the IC50 is at least 25 µM. Take `CC1Oc2c(cc(Br)cc2S(=O)(=O)NCCc2ccc(OC(F)(F)F)cc2)NC1=O` (centres unmarked) [BC19364]: the IC50 was 1 to 25 µM.

For the molecule `CCC1Oc2c(cc(Br)cc2S(=O)(=O)Nc2ccc(Cl)cc2)NC1=O` (centres unmarked) [BC19290], the IC50 is at least 25 µM.

For `CC(C)c1ccc(NS(=O)(=O)c2cc(Br)cc3c2OCCC(=O)N3)cc1` [BC19687], the IC50 was at least 25 µM. `CC1Oc2cc(S(=O)(=O)Nc3ccc(Cl)cc3)c(Cl)cc2NC1=O` (centres unmarked) [BC19696]: the IC50 was 1 to 25 µM. As to `CCC1Oc2c(cc(Br)cc2S(=O)(=O)NCc2ccccc2)NC1=O` (centres unmarked) [BC19230], the IC50 was at least 25 µM. Take `COc1ccc(NS(=O)(=O)c2cc(Cl)cc3c2OC(C)C(=O)N3)cc1` (centres unmarked) [BC19707]: the IC50 was at least 25 µM. With `CCC1Oc2c(cc(Br)cc2S(=O)(=O)Nc2ccc(F)cc2F)N(C)C1=O` (centres unmarked) [BC19913], the IC50 was 1 to 25 µM.

Turning to `CCC1Oc2cc(S(=O)(=O)Nc3ccc(F)cc3Cl)c(Cl)cc2NC1=O` (centres unmarked) [BC19755], the IC50 fell in the range of 1 to 25 µM. Turning to `CC1Oc2cc(S(=O)(=O)Nc3cccc(F)c3)c(Br)cc2N(C)C1=O` (centres unmarked) [BC19903], the half-inhibitory concentration (IC50) lay in the range of 1 to 25 µM.

With `Cc1ccc(NS(=O)(=O)c2cc(Cl)cc3c2OC(C)C(=O)N3)cc1F` (centres unmarked) [BC19701], the IC50 lay in the range of 1 to 25 µM. On to `CC1C(=O)Nc2ccc(S(=O)(=O)N3CCCC3)cc2N1C` (centres unmarked) [BC19296], for which the IC50 fell in the range of 1 to 25 µM.

For the molecule `CS(=O)(=O)c1cc2c(c(S(=O)(=O)Nc3ccc(Cl)cc3)c1)OCC(=O)N2` [BC19483], the IC50 was at least 25 µM. For the molecule `O=C1CCOc2cc(S(=O)(=O)Nc3ccccc3)c(Br)cc2N1` [BC19689], the IC50 was at least 25 µM. The value for `Cc1ccc(NS(=O)(=O)c2cc(Br)cc3c2OC(CC(C)C)C(=O)N3)cc1Cl` (centres unmarked) [BC19767] was 1 to 25 µM; that for `CC(C)(C)C1CCC(NS(=O)(=O)c2cc3c(cc2Br)NC(=O)CO3)CC1` (centres unmarked) [BC19388] was at least 25 µM. Consider `Cc1ccc(NS(=O)(=O)c2cc3c(cc2Br)N(C)C(=O)C(C)O3)cc1F` (centres unmarked) [BC19786], for which the IC50 was at least 25 µM. On to `CCc1ccc(NS(=O)(=O)c2cc3c(cc2Cl)NC(=O)C(C)O3)cc1` (centres unmarked) [BC19702], for which the IC50 is at least 25 µM. On to `Cc1ccc(NS(=O)(=O)c2cc(Cl)cc3c2OCC(=O)N3)cc1Cl` [BC19176], for which the IC50 is below 1 µM. For `O=C1CCOc2cc(S(=O)(=O)Nc3ccc(F)cc3Cl)c(Br)cc2N1` [BC19658], the half-inhibitory concentration (IC50) is at least 25 µM.

With `CCC1Oc2cc(S(=O)(=O)NCCc3ccc(OC(F)(F)F)cc3)c(Br)cc2NC1=O` (centres unmarked) [BC19373], the IC50 was at least 25 µM.

Turning to `CCc1cccc(NS(=O)(=O)c2cc(Br)cc3c2OC(CC)C(=O)N3C)c1` (centres unmarked) [BC19915], the concentration for half-maximal inhibition (IC50) lay within 1 to 25 µM.

For `CCC1Oc2c(cc(Cl)cc2S(=O)(=O)Nc2ccc(Cl)cc2)NC1=O` (centres unmarked) [BC19740], the IC50 was 1 to 25 µM.

For `CCC1Oc2c(cc(Br)cc2S(=O)(=O)Nc2ccc(Cl)cc2)N(C)C1=O` (centres unmarked) [BC19929], the IC50 is at least 25 µM.

For `CC1Oc2cc(S(=O)(=O)Nc3ccc(F)c(F)c3)c(Cl)cc2NC1=O` (centres unmarked) [BC19698], the IC50 is at least 25 µM. Consider `CC(C)CC1Oc2c(cc(Br)cc2S(=O)(=O)Nc2ccc(F)cc2Cl)NC1=O` (centres unmarked) [BC19777], for which the IC50 is at least 25 µM. The value for `N#Cc1ccc(NS(=O)(=O)c2cc3c(cc2Br)NC(=O)CCO3)cc1` [BC19695] was at least 25 µM; that for `O=C1CCOc2cc(S(=O)(=O)Nc3cccc(F)c3)c(Br)cc2N1` [BC19654] was at least 25 µM; that for `O=C1COc2c(cc(Br)cc2S(=O)(=O)NCCc2ccc(OC(F)(F)F)cc2)N1` [BC19383] was at least 25 µM. For the molecule `O=C1COc2c(cc(Cl)cc2S(=O)(=O)Nc2ccc(Cl)cc2)N1` [BC19169], the IC50 is below 1 µM. The value for `CCOc1ccc(NS(=O)(=O)c2cc(Br)cc3c2OCC(=O)N3)cc1` [BC19173] was at least 25 µM; that for `CC1Oc2cc(S(=O)(=O)Nc3ccccc3)c(Cl)cc2NC1=O` (centres unmarked) [BC19206] was at least 25 µM. On to `CCC1Oc2c(cc(Br)cc2S(=O)(=O)NCc2ccc(F)cc2F)NC1=O` (centres unmarked) [BC19374], for which the IC50 is at least 25 µM. For `CS(=O)(=O)c1cc2c(c(S(=O)(=O)Nc3ccccc3)c1)OCC(=O)N2` [BC19482], the IC50 is at least 25 µM.

`Cc1c(Cl)cc2c(c1S(=O)(=O)Nc1ccc(OC(F)(F)F)cc1)OCC(=O)N2` [BC19490]: the IC50 is at least 25 µM. The value for `CCc1cccc(NS(=O)(=O)c2cc(Cl)cc3c2OC(C)C(=O)N3)c1` (centres unmarked) [BC19712] was at least 25 µM.

In the case of `O=C1NCCOc2c1cc(Br)cc2S(=O)(=O)Nc1ccc(F)cc1F` [BC19608], the IC50 was at least 25 µM. On to `CCC1Oc2c(cc(Br)cc2S(=O)(=O)NC2CCC(O)CC2)NC1=O` (centres unmarked) [BC19378], for which the IC50 fell in the range of 1 to 25 µM. Turning to `CC1Oc2c(cc(Br)cc2S(=O)(=O)NCc2ccc(F)cc2F)NC1=O` (centres unmarked) [BC19362], the IC50 is at least 25 µM.

Regarding `O=C1COc2cc(S(=O)(=O)NCCc3ccc(OC(F)(F)F)cc3)c(Br)cc2N1` [BC19387], the IC50 was at least 25 µM.

As to `CC1Oc2c(cc(Br)cc2S(=O)(=O)Nc2ccc(F)cc2)N(C)C1=O` (centres unmarked) [BC19911], the IC50 was at least 25 µM. On to `CC1Oc2c(cc(Br)cc2S(=O)(=O)NCc2ccc(C(F)(F)F)cc2)NC1=O` (centres unmarked) [BC19365], for which the IC50 is 1 to 25 µM. Regarding `CCS(=O)(=O)c1cc2c(c(S(=O)(=O)Nc3ccccc3)c1)OCC(=O)N2` [BC19437], the IC50 is at least 25 µM. The value for `CC1Oc2c(cc(Cl)cc2S(=O)(=O)Nc2ccc(C#N)cc2)NC1=O` (centres unmarked) [BC19730] was 1 to 25 µM. `CCC1Oc2c(cc(Cl)cc2S(=O)(=O)Nc2ccc(OC(F)(F)F)cc2)NC1=O` (centres unmarked) [BC19734]: the IC50 was 1 to 25 µM.

Regarding `CCc1ccc(NS(=O)(=O)c2cc3c(cc2Cl)NC(=O)C(CC)O3)cc1` (centres unmarked) [BC19741], the IC50 is 1 to 25 µM. As to `CCC1Oc2cc(S(=O)(=O)Nc3ccc(OC)c(Cl)c3)c(Cl)cc2NC1=O` (centres unmarked) [BC19743], the IC50 is at least 25 µM. For the molecule `Cc1ccc(NS(=O)(=O)c2cc(Br)cc3c2OC(C)C(=O)N3C)cc1Cl` (centres unmarked) [BC19796], the IC50 lay within 1 to 25 µM. The value for `CCC1Oc2cc(S(=O)(=O)Nc3cccc(C(C)=O)c3)c(Cl)cc2NC1=O` (centres unmarked) [BC19282] was 1 to 25 µM.

The values above are taken from patent US20240000806A1, “METHODS AND MATERIALS FOR INHIBITING CB1 ACTIVITY” (University of Pittsburgh - Of the Commonwealth System of …, priority 2020, published 2024).
